Our source for the IC50 values is patent US20240092761A1, “QUINAZOLINE COMPOUNDS AND METHODS OF USE” (IAMBIC THERAPEUTICS, INC., priority 2022, published 2024).

One assay has as its system MCF-7 cells. Kind of assay: Cell Growth Inhibition, MCF-7 (CellTiterGlo, 6 days). It counts as cell-based. The conditions noted are these: MCF-7, 6-day treatment, CellTiterGlo 2.0. The essentials: (§1)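 MCF-7 and OVCAR-3 cells (RPMI, 10% FBS) were seeded at 500 cells/well onto compound, typically 10–10,000 nM in half-log dilutions. Growth proceeded 6 days at 37 °C, then CellTiterGlo luminescence was read. % inhibition was taken versus control, and IC50 came from a four-parameter variable-slope fit.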
(In general: In ATP-based viability assays light output follows the ATP content of the culture.)

In another assay the target is CDK1/Cyclin B1 (Homo sapiens (Human), UniProt P06493). Kind of assay: CDK1/Cyclin B1 ADP-Glo Kinase Assay. Conditions: 80 uM ATP. It counts as biochemical. The essentials:
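CDK1/cyclin B1 (4.917 nM) preincubated 30 min with inhibitor (2% DMSO), then 80 µM ATP (Km 78.6 µM) and 0.75 µM substrate added; 90 min, room temperature, pH 7.5. ADP measured by ADP-Glo luminescence; IC50 from 4-parameter fit.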
A general note: In ADP-Glo the light output rises with the ADP produced.

A further assay concerns OVCAR-3 cells. Kind of assay: Cell Growth Inhibition, OVCAR-3 (CellTiterGlo, 6 days). It counts as cell-based. Conditions: OVCAR-3, 6-day treatment, CellTiterGlo 2.0. The essentials: as §1
For the next assay, the target named is CDK6/Cyclin D3 (Homo sapiens (Human), UniProt Q00534). In words: CDK6/Cyclin D3 ADP-Glo Kinase Assay. Format: biochemical. The conditions noted are these: 100 uM ATP, read-out: CDK6/ CyclinD3 IC50. The essentials:
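Recombinant human CDK6/Cyclin D3 pre-incubated 30 min with inhibitor at room temperature, then reaction started with ATP/substrate and run 90 min at room temperature. ADP formed detected by ADP-Glo luminescence; IC50 from a 4-parameter fit of fractional velocity versus inhibitor concentration.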

A further assay concerns the target CDK4/Cyclin D1 (Homo sapiens (Human), UniProt P11802). Kind of assay: CDK4/Cyclin D1 CHEF Assay (AQT0258 peptide). It counts as biochemical. Conditions: 200 uM ATP, read-out: CDK4/ CyclinD1 AQT IC50. The essentials:
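CDK4/Cyclin D1 (2.5 nM) phosphorylating 10 uM Sox-labelled peptide AQT0258 with 200 uM ATP (Km 195.2 uM), 10 mM MgCl2, 2% DMSO, 54 mM HEPES pH 7.5. Enzyme and inhibitor pre-incubated 30 min, reaction 3 hrs at 22° C.; CHEF fluorescence (ex 360/em 485 nm), IC50 from fractional velocity, 4-parameter fit.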

Assay [1] concerns the target CDK2/Cyclin E1 full length (Homo sapiens (Human), UniProt P24941). Kind of assay: CDK2/Cyclin E1 Full Length ADP-Glo Kinase Assay. Format: biochemical. Conditions: 20 uM ATP, read-out: CDK2/ CyclinE1 IC50. The essentials:
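Full-length human CDK2/Cyclin E1 (0.328 nM) pre-incubated 30 min with inhibitor at RT, then reacted 90 min at RT with 20 uM ATP (Km 64.78 uM) and 0.75 uM substrate in pH 7.5 HEPES, 2% DMSO. ADP measured by ADP-Glo luminescence; IC50 from 4-parameter fit of fractional velocity.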

Each structure is given as a SMILES string.

CDK1/Cyclin B1, sequence (P06493 whole entry): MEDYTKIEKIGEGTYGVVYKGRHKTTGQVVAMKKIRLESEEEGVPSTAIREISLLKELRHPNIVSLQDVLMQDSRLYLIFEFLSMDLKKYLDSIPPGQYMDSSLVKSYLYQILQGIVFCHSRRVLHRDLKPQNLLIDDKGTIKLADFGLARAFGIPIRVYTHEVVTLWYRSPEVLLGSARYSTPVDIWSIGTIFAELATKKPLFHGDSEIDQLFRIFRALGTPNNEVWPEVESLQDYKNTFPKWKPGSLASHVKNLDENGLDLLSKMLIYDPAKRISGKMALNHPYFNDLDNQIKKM
CDK1/Cyclin B1, sequence (P14635 whole entry partner): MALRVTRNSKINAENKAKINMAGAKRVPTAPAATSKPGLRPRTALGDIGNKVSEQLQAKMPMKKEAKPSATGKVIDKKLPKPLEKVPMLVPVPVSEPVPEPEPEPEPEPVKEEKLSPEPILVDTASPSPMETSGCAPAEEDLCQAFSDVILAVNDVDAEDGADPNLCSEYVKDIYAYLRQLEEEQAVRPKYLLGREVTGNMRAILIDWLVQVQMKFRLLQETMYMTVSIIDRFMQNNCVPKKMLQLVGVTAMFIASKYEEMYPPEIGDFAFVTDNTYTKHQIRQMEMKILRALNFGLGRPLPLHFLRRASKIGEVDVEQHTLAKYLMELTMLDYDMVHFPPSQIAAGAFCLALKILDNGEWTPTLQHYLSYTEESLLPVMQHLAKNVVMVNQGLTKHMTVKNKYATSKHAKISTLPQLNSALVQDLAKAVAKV
CDK6/Cyclin D3, sequence (Q00534 whole entry): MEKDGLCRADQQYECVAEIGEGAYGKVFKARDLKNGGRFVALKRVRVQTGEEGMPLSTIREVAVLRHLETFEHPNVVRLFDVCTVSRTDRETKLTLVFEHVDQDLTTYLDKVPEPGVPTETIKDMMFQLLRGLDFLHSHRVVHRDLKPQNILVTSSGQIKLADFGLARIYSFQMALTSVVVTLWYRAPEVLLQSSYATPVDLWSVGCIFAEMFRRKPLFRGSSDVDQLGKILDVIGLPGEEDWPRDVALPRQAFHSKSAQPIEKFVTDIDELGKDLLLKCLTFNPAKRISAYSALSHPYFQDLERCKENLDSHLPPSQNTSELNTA
CDK6/Cyclin D3, sequence (P30281 whole entry partner): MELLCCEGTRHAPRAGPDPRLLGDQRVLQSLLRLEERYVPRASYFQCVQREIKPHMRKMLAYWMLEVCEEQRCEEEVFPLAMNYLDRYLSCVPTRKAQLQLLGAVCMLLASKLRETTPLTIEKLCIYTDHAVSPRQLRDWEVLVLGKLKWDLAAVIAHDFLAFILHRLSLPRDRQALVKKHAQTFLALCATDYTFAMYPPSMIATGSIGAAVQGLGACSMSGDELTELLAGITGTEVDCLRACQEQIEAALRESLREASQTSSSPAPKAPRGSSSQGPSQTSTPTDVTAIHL
CDK4/Cyclin D1, sequence (P11802 whole entry): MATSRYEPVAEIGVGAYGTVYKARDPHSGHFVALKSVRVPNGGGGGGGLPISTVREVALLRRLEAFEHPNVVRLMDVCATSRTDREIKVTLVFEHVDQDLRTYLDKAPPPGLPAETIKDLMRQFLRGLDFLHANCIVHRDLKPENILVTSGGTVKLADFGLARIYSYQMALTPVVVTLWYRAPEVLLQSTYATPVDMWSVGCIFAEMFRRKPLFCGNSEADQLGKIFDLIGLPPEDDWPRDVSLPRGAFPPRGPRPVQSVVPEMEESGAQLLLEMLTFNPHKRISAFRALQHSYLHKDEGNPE
CDK4/Cyclin D1, sequence (P24385 whole entry partner): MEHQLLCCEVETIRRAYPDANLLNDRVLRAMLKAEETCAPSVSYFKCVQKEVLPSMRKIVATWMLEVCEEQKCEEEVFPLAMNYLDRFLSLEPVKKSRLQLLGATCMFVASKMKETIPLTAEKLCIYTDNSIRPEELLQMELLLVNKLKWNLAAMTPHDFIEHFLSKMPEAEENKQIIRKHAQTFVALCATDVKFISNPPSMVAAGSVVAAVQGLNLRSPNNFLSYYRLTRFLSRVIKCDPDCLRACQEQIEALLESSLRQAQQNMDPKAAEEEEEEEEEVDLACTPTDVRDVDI

Take `CN1CC2(CCN(c3cc(C(F)F)cc4cnc(NC5CCN(c6ncc7ccn(C8CC8)c7n6)CC5)nc34)C2)C1` [Example 71, N-(1-(7-cyclopropyl-7H-pyrrolo[2,3-d]pyrimidin-2-yl)piperidin-4-yl)-6-(difluoromethyl)-8-(2-methyl-2,6-diazaspiro[3.4]octan-6-yl)quinazolin-2-amine]: the IC50 in the assay on MCF-7 cells (Homo sapiens, MCF7, 144 h) is 500 to 2000 nM; at CDK1/Cyclin B1, greater than 2000 nM; with OVCAR-3 cells (Homo sapiens, 144 h), 500 to 2000 nM; at CDK6/Cyclin D3, 500 to 2000 nM; at CDK4/Cyclin D1, less than 200 nM; in assay [1], 200 to 500 nM.
With `O=S(=O)(N1CCC(Nc2ncc3cc(C(F)F)cc(C4CC5(CCNC5)C4)c3n2)CC1)C1(C(F)F)CC1` (stereo not drawn) [Example 91, 6-(difluoromethyl)-N-(1-((1-(difluoromethyl)cyclopropyl)sulfonyl)piperidin-4-yl)-8-(6-azaspiro[3.4]octan-2-yl)quinazolin-2-amine], the IC50 with MCF-7 cells (Homo sapiens, MCF7, 144 h) was 200 to 500 nM; against CDK1/Cyclin B1, less than 200 nM; with OVCAR-3 cells (Homo sapiens, 144 h), less than 200 nM; on CDK6/Cyclin D3 it was less than 200 nM; at CDK4/Cyclin D1, less than 200 nM; in assay [1] it was less than 200 nM.
On to `CN1CCC2(C1)CN(c1cc(C(F)F)cc3cnc(NC4CCN(S(=O)(=O)C5CC5)CC4)nc13)C2` [Example 81, N-(1-(cyclopropylsulfonyl)piperidin-4-yl)-6-(difluoromethyl)-8-(6-methyl-2,6-diazaspiro[3.4]octan-2-yl)quinazolin-2-amine], for which the IC50 is 500 to 2000 nM in the assay with MCF-7 cells (Homo sapiens, MCF7, 144 h); 200 to 500 nM at CDK1/Cyclin B1; 500 to 2000 nM in the assay with OVCAR-3 cells (Homo sapiens, 144 h); less than 200 nM on CDK6/Cyclin D3; less than 200 nM on CDK4/Cyclin D1; less than 200 nM in assay [1].
Regarding `Cn1ncc2cc(Nc3ncc4cc(C(F)F)cc(N5CC6(CCNC6)C5)c4n3)ccc21` [Example 75, 6-(difluoromethyl)-N-(1-methyl-1H-indazol-5-yl)-8-(2,6-diazaspiro[3.4]octan-2-yl)quinazolin-2-amine], the IC50 was 500 to 2000 nM in the assay with MCF-7 cells (Homo sapiens, MCF7, 144 h); less than 200 nM on CDK1/Cyclin B1; 500 to 2000 nM with OVCAR-3 cells (Homo sapiens, 144 h); less than 200 nM at CDK6/Cyclin D3; less than 200 nM on CDK4/Cyclin D1; less than 200 nM in assay [1].
Turning to `CS(=O)(=O)N1Cc2ccc(Nc3ncc4cc(C(F)F)cc(N5CC6(C5)CN(C5CC5)C6)c4n3)cc2C1` [Example 72, 8-(6-cyclopropyl-2,6-diazaspiro[3.3]heptan-2-yl)-6-(difluoromethyl)-N-(2-(methylsulfonyl)isoindolin-5-yl)quinazolin-2-amine], the IC50 is 500 to 2000 nM in the assay with MCF-7 cells (Homo sapiens, MCF7, 144 h); less than 200 nM against CDK1/Cyclin B1; greater than 2000 nM in the assay with OVCAR-3 cells (Homo sapiens, 144 h); less than 200 nM at CDK6/Cyclin D3; less than 200 nM at CDK4/Cyclin D1; less than 200 nM in assay [1].
Turning to `CN1C[C@@H]2C(Nc3ncc4cc(C(F)F)cc(N5CCC6(CCN(S(C)(=O)=O)C6)C5)c4n3)[C@@H]2C1` (stereo partly drawn) [Example 56, 6-(difluoromethyl)-N-((1R,5S,6s)-3-methyl-3-azabicyclo[3.1.0]hexan-6-yl)-8-(7-(methylsulfonyl)-2,7-diazaspiro[4.4]nonan-2-yl)quinazolin-2-amine], the IC50 in the assay with MCF-7 cells was greater than 2000 nM; against CDK1/Cyclin B1 it was greater than 2000 nM; with OVCAR-3 cells it was greater than 2000 nM; on CDK6/Cyclin D3, greater than 2000 nM; on CDK4/Cyclin D1, 200 to 500 nM; in assay [1], greater than 2000 nM.
For the compound `O=S(=O)(C1CC1)N1CCC(Nc2ncc3cc(C(F)F)cc(N4CC5(CCNC5)C4)c3n2)CC1` [Example 74, N-(1-(cyclopropylsulfonyl)piperidin-4-yl)-6-(difluoromethyl)-8-(2,6-diazaspiro[3.4]octan-2-yl)quinazolin-2-amine], the IC50 in the assay with MCF-7 cells (Homo sapiens, MCF7, 144 h) was 200 to 500 nM; on CDK1/Cyclin B1 it was less than 200 nM; in the assay on OVCAR-3 cells (Homo sapiens, 144 h) it was 200 to 500 nM; at CDK6/Cyclin D3, less than 200 nM; at CDK4/Cyclin D1 it was less than 200 nM; in assay [1], less than 200 nM.
On to `O=S(=O)(C1CC1)N1CCC(Nc2ncc3cc(C(F)F)cc(N4CC5(C4)CN(C4CC4)C5)c3n2)CC1` [Example 78, 8-(6-cyclopropyl-2,6-diazaspiro[3.3]heptan-2-yl)-N-(1-(cyclopropylsulfonyl)piperidin-4-yl)-6-(difluoromethyl)quinazolin-2-amine], for which the IC50 is 500 to 2000 nM with MCF-7 cells (Homo sapiens, MCF7, 144 h); 200 to 500 nM against CDK1/Cyclin B1; greater than 2000 nM in the assay with OVCAR-3 cells (Homo sapiens, 144 h); less than 200 nM at CDK6/Cyclin D3; less than 200 nM on CDK4/Cyclin D1; less than 200 nM in assay [1].
For `CN1Cc2ccc(Nc3ncc4cc(C(F)F)cc(N5CC6(C5)CN(C5CC5)C6)c4n3)cc2C1` [Example 65, 8-(6-cyclopropyl-2,6-diazaspiro[3.3]heptan-2-yl)-6-(difluoromethyl)-N-(2-methylisoindolin-5-yl)quinazolin-2-amine], the IC50 with MCF-7 cells (Homo sapiens, MCF7, 144 h) was 500 to 2000 nM; on CDK1/Cyclin B1, greater than 2000 nM; in the assay with OVCAR-3 cells (Homo sapiens, 144 h), 500 to 2000 nM; on CDK6/Cyclin D3, less than 200 nM; on CDK4/Cyclin D1, less than 200 nM; in assay [1] it was less than 200 nM.
For the compound `O[C@@H]1COCC[C@H]1Nc1ncc2cc(C(F)F)cc(N3CC(F)(F)C4(CNC4)C3)c2n1` (racemic) [Example 117, (3S,4R)-4-((8-(8,8-difluoro-2,6-diazaspiro[3.4]octan-6-yl)-6-(difluoromethyl)quinazolin-2-yl)amino)tetrahydro-2H-pyran-3-ol], the IC50 is 500 to 2000 nM in the assay on MCF-7 cells (Homo sapiens, MCF7, 144 h); greater than 2000 nM against CDK1/Cyclin B1; greater than 2000 nM in the assay on OVCAR-3 cells (Homo sapiens, 144 h); less than 200 nM at CDK6/Cyclin D3; less than 200 nM on CDK4/Cyclin D1; less than 200 nM in assay [1].
Take `CC1(S(=O)(=O)N2CCC(Nc3ncc4cc(C(F)F)cc(N5CC6(CCNC6)C5)c4n3)CC2)CC1` [Example 87, 6-(difluoromethyl)-N-(1-((1-methylcyclopropyl)sulfonyl)piperidin-4-yl)-8-(2,6-diazaspiro[3.4]octan-2-yl)quinazolin-2-amine]: the IC50 in the assay with MCF-7 cells (Homo sapiens, MCF7, 144 h) is 500 to 2000 nM; at CDK1/Cyclin B1 it was less than 200 nM; in the assay on OVCAR-3 cells (Homo sapiens, 144 h) it was 200 to 500 nM; on CDK6/Cyclin D3 it was less than 200 nM; at CDK4/Cyclin D1, less than 200 nM; in assay [1], less than 200 nM.
Take `O=S(=O)(CC1CCC1)N1CCC(Nc2ncc3cc(C(F)F)cc(N4CC5(CCNC5)C4)c3n2)CC1` [Example 86, N-(1-((cyclobutylmethyl)sulfonyl)piperidin-4-yl)-6-(difluoromethyl)-8-(2,6-diazaspiro[3.4]octan-2-yl)quinazolin-2-amine]: the IC50 in the assay on MCF-7 cells (Homo sapiens, MCF7, 144 h) is 500 to 2000 nM; against CDK1/Cyclin B1 it was less than 200 nM; in the assay on OVCAR-3 cells (Homo sapiens, 144 h), 500 to 2000 nM; on CDK6/Cyclin D3, less than 200 nM; at CDK4/Cyclin D1 it was less than 200 nM; in assay [1], less than 200 nM.
As to `CN1CC2(CCN(c3cc(C(F)F)cc4cnc(NC5CCN(c6ncc(C7CC7)cn6)CC5)nc34)C2)C1` [Example 64, N-(1-(5-cyclopropylpyrimidin-2-yl)piperidin-4-yl)-6-(difluoromethyl)-8-(2-methyl-2,6-diazaspiro[3.4]octan-6-yl)quinazolin-2-amine], the IC50 in the assay on MCF-7 cells (Homo sapiens, MCF7, 144 h) is 500 to 2000 nM; at CDK1/Cyclin B1, greater than 2000 nM; in the assay on OVCAR-3 cells (Homo sapiens, 144 h), greater than 2000 nM; on CDK6/Cyclin D3, greater than 2000 nM; at CDK4/Cyclin D1 it was less than 200 nM; in assay [1], 500 to 2000 nM.
On to `CS(=O)(=O)N1CCC(Nc2ncc3cc(C(F)F)cc(N4CC5(C4)CN(C4CC4)C5)c3n2)CC1` [Example 69, 8-(6-cyclopropyl-2,6-diazaspiro[3.3]heptan-2-yl)-6-(difluoromethyl)-N-(1-(methylsulfonyl)piperidin-4-yl)quinazolin-2-amine], for which the IC50 in the assay with MCF-7 cells (Homo sapiens, MCF7, 144 h) was 200 to 500 nM; against CDK1/Cyclin B1, 200 to 500 nM; in the assay on OVCAR-3 cells (Homo sapiens, 144 h) it was 500 to 2000 nM; on CDK6/Cyclin D3 it was less than 200 nM; at CDK4/Cyclin D1 it was less than 200 nM; in assay [1], less than 200 nM.
Consider `O=S(=O)(N1CCC(Nc2ncc3cc(C(F)F)cc(N4CCC5(CNC5)C4)c3n2)CC1)C1(C(F)F)CC1` [Example 88, 6-(difluoromethyl)-N-(1-((1-(difluoromethyl)cyclopropyl)sulfonyl)piperidin-4-yl)-8-(2,6-diazaspiro[3.4]octan-6-yl)quinazolin-2-amine], for which the IC50 in the assay on MCF-7 cells (Homo sapiens, MCF7, 144 h) was 200 to 500 nM; at CDK1/Cyclin B1 it was less than 200 nM; in the assay on OVCAR-3 cells (Homo sapiens, 144 h) it was 200 to 500 nM; on CDK6/Cyclin D3 it was less than 200 nM; on CDK4/Cyclin D1, less than 200 nM; in assay [1], less than 200 nM.
